Source: ChEMBL document CHEMBL1143953, “Novel 2-phenylquinolin-7-yl-derived imidazo[1,5-a]pyrazines as potent insulin-like growth factor-I receptor (IGF-IR) inhibitors” (Bioorg Med Chem, 2008)

Target: Cytochrome P450 3A4 (Homo sapiens, UniProt P08684)
Test: Inhibition of CYP3A4
Type: ADME

Sequence of Cytochrome P450 3A4 (P08684 whole entry): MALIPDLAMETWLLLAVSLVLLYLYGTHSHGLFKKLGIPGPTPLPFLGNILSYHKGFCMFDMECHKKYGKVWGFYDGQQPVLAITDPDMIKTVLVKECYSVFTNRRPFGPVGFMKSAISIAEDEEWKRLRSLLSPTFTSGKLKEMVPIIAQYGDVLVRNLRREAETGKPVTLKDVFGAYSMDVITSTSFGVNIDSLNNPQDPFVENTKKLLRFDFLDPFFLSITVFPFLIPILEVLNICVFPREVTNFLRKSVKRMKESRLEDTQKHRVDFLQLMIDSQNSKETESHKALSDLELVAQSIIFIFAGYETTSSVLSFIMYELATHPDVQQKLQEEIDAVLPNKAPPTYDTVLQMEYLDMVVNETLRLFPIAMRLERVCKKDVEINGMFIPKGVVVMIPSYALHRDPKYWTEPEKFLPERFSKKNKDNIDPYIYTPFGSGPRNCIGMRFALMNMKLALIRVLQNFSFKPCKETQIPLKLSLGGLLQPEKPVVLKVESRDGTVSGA

SMILES	IC50 [µM]
Nc1nccn2c1c(-c1ccc3ccc(-c4ccccc4)nc3c1)nc2[C@H]1C[C@@H](N2CCOCC2)C1	12
CN(C)C[C@H]1C[C@@H](c2nc(-c3ccc4ccc(-c5ccccc5)nc4c3)c3c(N)nccn32)C1	15
CN(C)[C@H]1C[C@@H](c2nc(-c3ccc4ccc(-c5ccccc5)nc4c3)c3c(N)nccn32)C1	19
CN(C)C[C@H]1C[C@H](c2nc(-c3ccc4ccc(-c5ccccc5)nc4c3)c3c(N)nccn32)C1	15
